Reference: the kinase profiling compilation of Christmann-Franck et al. (2016)

Experiments:
Assay in all cases: KINOMEscan competition binding
Conditions in all cases: compound 10.0 µM
ABL1 (human) = ABL1 (human) (UniProt P00519)
[1] = tested on: ABL1 (human), P00519 [H396P]
[2] = tested on: ABL1 (human), P00519 [Y253F]
ABL2 (human) = ABL2 (human) (UniProt P42684)
BMX (human) = BMX (human) (UniProt P51813)
CDK11B (human) = CDK11B (human) (UniProt P21127)
CDK14 (human) = CDK14 (human) (UniProt O94921)
CDK18 (human) = CDK18 (human) (UniProt Q07002)
CDK2 (human) = CDK2 (human) (UniProt P24941)
CHUK (human) = CHUK (human) (UniProt O15111)
CIT (human) = CIT (human) (UniProt O14578)
[3] = tested on: EGFR (human), P00533 [752-759 del]
[4] = tested on: EGFR (human), P00533 [P753S; 747-752 del]
EPHA3 (human) = EPHA3 (human) (UniProt P29320)
EPHA4 (human) = EPHA4 (human) (UniProt P54764)
FGFR2 (human) = FGFR2 (human) (UniProt P21802)
[5] = tested on: FGFR3 (human), P22607 [G697C]
FLT1 (human) = FLT1 (human) (UniProt P17948)
FRK (human) = FRK (human) (UniProt P42685)
GAK (human) = GAK (human) (UniProt O14976)
IKBKB (human) = IKBKB (human) (UniProt O14920)
[6] = molecular target: JAK1 JH1 catalytic (human) (UniProt P23458)
LYN (human) = LYN (human) (UniProt P07948)
MAP3K3 (human) = MAP3K3 (human) (UniProt Q99759)
MAPK11 (human) = MAPK11 (human) (UniProt Q15759)
MAPK13 (human) = MAPK13 (human) (UniProt O15264)
MUSK (human) = MUSK (human) (UniProt O15146)
MYO3A (human) = MYO3A (human) (UniProt Q8NEV4)
MYO3B (human) = MYO3B (human) (UniProt Q8WXR4)
NTRK3 (human) = NTRK3 (human) (UniProt Q16288)
PDGFRB (human) = PDGFRB (human) (UniProt P09619)
PRKACB (human) = PRKACB (human) (UniProt P22694)
PRKCE (human) = PRKCE (human) (UniProt Q02156)
RPS6KA5 KD1 (human) = RPS6KA5 KD1 (human) (UniProt O75582)
SLK (human) = SLK (human) (UniProt Q9H2G2)
STK35 (human) = STK35 (human) (UniProt Q8TDR2)
STK36 (human) = STK36 (human) (UniProt Q9NRP7)
STK38L (human) = STK38L (human) (UniProt Q9Y2H1)
TNIK (human) = TNIK (human) (UniProt Q9UKE5)
TXK (human) = TXK (human) (UniProt P42681)
[7] = molecular target: TYK2 JH1 catalytic (human) (UniProt P29597)

FLT1 (human), sequence (P17948 whole entry, looked up): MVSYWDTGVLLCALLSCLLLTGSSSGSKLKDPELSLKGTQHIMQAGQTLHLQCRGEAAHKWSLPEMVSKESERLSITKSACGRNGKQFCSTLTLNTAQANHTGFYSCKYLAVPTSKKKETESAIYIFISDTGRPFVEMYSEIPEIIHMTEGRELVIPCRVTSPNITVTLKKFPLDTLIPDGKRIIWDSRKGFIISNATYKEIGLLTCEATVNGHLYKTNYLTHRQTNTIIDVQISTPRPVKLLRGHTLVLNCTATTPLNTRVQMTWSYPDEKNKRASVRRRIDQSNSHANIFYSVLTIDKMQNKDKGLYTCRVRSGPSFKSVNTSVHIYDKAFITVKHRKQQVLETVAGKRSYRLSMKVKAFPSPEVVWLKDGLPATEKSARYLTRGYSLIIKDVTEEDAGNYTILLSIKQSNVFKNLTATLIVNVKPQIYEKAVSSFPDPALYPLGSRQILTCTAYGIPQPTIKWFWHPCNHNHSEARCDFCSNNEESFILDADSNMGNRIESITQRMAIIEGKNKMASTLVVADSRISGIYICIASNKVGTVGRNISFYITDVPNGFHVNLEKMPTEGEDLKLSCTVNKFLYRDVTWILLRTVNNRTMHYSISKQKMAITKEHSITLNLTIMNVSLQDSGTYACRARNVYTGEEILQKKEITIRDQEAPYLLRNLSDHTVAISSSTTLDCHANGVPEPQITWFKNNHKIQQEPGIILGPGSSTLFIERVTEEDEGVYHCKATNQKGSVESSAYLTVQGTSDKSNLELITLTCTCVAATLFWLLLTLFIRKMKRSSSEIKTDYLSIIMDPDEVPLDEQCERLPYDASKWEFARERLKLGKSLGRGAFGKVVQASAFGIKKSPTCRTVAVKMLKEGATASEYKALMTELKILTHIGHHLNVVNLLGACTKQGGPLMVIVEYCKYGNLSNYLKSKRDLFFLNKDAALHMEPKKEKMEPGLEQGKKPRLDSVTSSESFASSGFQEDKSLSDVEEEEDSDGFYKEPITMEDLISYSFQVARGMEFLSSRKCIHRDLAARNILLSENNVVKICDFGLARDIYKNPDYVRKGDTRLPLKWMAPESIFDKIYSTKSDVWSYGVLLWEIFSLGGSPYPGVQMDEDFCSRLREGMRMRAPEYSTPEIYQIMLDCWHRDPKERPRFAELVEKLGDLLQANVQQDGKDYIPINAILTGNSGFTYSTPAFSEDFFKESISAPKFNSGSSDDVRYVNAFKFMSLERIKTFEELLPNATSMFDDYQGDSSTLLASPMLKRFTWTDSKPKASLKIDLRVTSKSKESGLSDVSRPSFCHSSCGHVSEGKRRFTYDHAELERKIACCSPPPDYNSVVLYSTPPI
FGFR3 (human), P22607 [G697C], sequence (P22607 whole entry G697C, looked up): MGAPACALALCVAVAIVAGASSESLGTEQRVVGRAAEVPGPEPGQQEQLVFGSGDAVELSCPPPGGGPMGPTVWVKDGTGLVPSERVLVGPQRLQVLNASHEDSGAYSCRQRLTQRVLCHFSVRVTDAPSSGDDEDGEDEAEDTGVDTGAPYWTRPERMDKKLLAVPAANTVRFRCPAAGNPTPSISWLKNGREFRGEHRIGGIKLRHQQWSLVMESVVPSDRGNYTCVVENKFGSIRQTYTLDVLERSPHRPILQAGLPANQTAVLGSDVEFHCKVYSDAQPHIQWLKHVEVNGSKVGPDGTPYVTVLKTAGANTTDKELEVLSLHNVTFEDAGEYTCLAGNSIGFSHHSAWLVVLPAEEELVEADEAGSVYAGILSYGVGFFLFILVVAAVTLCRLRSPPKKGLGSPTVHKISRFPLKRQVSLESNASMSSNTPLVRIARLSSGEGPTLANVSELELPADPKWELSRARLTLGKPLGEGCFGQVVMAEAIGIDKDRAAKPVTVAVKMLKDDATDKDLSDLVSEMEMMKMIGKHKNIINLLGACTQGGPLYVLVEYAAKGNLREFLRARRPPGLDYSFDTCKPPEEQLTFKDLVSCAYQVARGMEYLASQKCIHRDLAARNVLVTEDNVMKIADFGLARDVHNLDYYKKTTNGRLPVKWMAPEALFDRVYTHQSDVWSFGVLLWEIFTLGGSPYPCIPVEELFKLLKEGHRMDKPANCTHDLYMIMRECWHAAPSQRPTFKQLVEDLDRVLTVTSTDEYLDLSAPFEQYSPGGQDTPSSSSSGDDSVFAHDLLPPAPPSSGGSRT
MYO3B (human), sequence (Q8WXR4 whole entry, looked up): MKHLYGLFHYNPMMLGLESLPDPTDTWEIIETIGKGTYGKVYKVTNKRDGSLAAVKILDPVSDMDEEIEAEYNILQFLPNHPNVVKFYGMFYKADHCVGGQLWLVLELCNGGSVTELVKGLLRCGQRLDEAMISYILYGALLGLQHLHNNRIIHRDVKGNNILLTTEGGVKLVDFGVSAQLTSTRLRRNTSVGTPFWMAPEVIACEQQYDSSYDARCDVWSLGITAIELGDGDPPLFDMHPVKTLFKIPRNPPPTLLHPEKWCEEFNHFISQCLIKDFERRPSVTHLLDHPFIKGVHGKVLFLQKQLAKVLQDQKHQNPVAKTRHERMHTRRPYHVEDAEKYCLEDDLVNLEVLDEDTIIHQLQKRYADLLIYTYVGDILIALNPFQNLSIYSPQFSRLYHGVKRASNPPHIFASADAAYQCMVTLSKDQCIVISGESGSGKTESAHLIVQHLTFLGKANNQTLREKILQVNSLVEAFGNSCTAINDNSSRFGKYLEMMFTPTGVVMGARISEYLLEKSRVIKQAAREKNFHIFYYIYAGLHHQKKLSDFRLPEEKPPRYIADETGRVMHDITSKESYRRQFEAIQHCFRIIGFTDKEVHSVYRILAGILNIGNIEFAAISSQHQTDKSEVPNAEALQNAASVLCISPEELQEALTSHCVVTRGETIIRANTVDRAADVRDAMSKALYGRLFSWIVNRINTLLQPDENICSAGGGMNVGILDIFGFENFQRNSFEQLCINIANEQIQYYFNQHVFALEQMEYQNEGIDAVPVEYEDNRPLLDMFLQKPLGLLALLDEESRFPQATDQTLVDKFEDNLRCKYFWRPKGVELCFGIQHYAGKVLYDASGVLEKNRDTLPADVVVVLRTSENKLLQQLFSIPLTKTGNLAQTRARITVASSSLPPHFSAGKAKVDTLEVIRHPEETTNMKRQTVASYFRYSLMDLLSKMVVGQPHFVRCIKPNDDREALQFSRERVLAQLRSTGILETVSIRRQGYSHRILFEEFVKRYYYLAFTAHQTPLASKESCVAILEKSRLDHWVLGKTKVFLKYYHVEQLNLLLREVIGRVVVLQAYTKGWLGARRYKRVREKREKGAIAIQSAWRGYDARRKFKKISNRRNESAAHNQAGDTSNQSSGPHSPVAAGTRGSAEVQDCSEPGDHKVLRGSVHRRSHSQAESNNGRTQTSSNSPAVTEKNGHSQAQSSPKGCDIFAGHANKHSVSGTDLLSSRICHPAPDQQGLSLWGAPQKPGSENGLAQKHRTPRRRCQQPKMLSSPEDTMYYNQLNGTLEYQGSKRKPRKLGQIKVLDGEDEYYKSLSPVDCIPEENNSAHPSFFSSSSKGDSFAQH
TXK (human), sequence (P42681 whole entry, looked up): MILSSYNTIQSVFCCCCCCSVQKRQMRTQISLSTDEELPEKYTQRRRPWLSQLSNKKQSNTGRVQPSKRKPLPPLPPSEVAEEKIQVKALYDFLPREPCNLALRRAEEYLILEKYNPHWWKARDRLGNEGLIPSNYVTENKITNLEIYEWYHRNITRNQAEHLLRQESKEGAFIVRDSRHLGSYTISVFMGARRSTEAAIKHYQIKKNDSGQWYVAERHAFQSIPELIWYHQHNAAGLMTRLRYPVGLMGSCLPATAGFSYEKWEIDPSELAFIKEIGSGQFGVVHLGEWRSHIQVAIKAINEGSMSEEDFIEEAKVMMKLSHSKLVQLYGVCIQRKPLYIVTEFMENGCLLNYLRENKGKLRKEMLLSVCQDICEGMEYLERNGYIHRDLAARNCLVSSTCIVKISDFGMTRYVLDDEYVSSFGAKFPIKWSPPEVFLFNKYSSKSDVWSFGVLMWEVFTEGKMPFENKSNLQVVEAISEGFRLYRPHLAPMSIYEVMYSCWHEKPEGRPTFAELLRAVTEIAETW
RPS6KA5 KD1 (human), sequence (O75582 whole entry, looked up): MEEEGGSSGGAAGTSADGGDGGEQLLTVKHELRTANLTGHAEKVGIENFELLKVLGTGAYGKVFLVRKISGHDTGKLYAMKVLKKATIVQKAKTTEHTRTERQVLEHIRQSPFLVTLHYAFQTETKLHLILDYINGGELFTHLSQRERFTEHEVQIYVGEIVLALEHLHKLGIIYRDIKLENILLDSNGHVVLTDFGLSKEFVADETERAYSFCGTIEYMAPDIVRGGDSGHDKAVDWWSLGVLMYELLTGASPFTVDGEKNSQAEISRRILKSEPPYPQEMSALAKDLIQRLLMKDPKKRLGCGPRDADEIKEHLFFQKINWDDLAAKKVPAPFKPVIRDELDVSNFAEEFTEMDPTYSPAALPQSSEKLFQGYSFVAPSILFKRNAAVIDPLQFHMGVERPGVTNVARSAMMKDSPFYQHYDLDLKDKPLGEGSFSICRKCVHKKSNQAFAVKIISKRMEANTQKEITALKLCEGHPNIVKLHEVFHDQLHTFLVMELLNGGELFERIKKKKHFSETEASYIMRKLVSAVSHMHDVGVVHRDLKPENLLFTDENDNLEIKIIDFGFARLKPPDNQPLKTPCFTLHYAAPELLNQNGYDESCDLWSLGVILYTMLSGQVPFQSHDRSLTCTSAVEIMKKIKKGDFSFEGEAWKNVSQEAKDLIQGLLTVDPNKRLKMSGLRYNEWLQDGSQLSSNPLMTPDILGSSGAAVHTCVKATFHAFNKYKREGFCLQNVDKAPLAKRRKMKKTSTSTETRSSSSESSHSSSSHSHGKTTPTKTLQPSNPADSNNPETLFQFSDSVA

kinase still bound, per cent of control (ABL1 (human)): 0.1%
kinase still bound, per cent of control [1]: 0.7%
kinase still bound, per cent of control [2]: 1.1%
kinase still bound, per cent of control (ABL2 (human)): 0.6%
kinase still bound, per cent of control (BMX (human)): 2.4%
residual activity (CDK11B (human)): 0.35%
residual activity (CDK14 (human)): 0.4%
residual activity (CDK18 (human)): 1.8%
residual activity (CDK2 (human)): 11%
kinase still bound, per cent of control (CHUK (human)): 0.95%
kinase still bound, per cent of control (CIT (human)): 0.1%
kinase still bound, per cent of control [3]: 4.6%
kinase still bound, per cent of control [4]: 1.2%
kinase still bound, per cent of control (EPHA3 (human)): 3.4%
kinase still bound, per cent of control (EPHA4 (human)): 5.8%
kinase still bound, per cent of control (FGFR2 (human)): 1.4%
kinase still bound, per cent of control [5]: 16%
kinase still bound, per cent of control (FLT1 (human)): 1.6%
kinase still bound, per cent of control (FRK (human)): 0.7%
kinase still bound, per cent of control (GAK (human)): 31%
kinase still bound, per cent of control (IKBKB (human)): 24%
kinase still bound, per cent of control [6]: 11%
kinase still bound, per cent of control (LYN (human)): 0.75%
kinase still bound, per cent of control (MAP3K3 (human)): 12%
kinase still bound, per cent of control (MAPK11 (human)): 0%
kinase still bound, per cent of control (MAPK13 (human)): 0.55%
kinase still bound, per cent of control (MUSK (human)): 0.2%
kinase still bound, per cent of control (MYO3A (human)): 6.4%
kinase still bound, per cent of control (MYO3B (human)): 4.8%
kinase still bound, per cent of control (NTRK3 (human)): 3.8%
kinase still bound, per cent of control (PDGFRB (human)): 0%
residual activity (PRKACB (human)): 14%
kinase still bound, per cent of control (PRKCE (human)): 20%
kinase still bound, per cent of control (RPS6KA5 KD1 (human)): 4.7%
kinase still bound, per cent of control (SLK (human)): 2%
kinase still bound, per cent of control (STK35 (human)): 3%
kinase still bound, per cent of control (STK36 (human)): 0.2%
kinase still bound, per cent of control (STK38L (human)): 6.8%
kinase still bound, per cent of control (TNIK (human)): 8.2%
kinase still bound, per cent of control (TXK (human)): 12%
kinase still bound, per cent of control [7]: 0%
Compound: CCN1CCN(Cc2ccc(NC(=O)c3ccc(C)c(Oc4ccnc5[nH]ccc45)c3)cc2C(F)(F)F)CC1
